This is an account of results in patent US20020028938A1, “Prostaglandin endoperoxide H synthase biosynthesis inhibitors” (priority 1997, published 2002).

Take `CS(=O)(=O)c1ccc(-c2cnn(CC(F)(F)F)c(=O)c2N)cc1` [Example 294, 2-(2,2,2-Trifluoroethyl)-4-amino-5-[4-(methylsulfonyl)phenyl]-3(2H)-pyridazinone]: the melting point (commonly the temperature, or range, at which the solid turns liquid) is above 260 °C.

The compound `Cc1ccc(Sc2c(-c3ccc(S(C)(=O)=O)cc3)cnn(-c3cccc(Cl)c3)c2=O)cc1` [Example 357, 2-(3-Chlorophenyl)-4-(4-methylphenylthio)-5-[4-(methylsulfonyl)phenyl]-3(2H)-pyridazinone] returned a melting point of 178 °C.

The compound `NS(=O)(=O)c1ccc(-c2cnn(Cc3ccccc3)c(=O)c2Cc2ccc(F)cc2)cc1` [Example 383, 2-Benzyl-4-(4-fluorobenzyl)-5-[4-(aminosulfonyl)phenyl]-3(2H)-pyridazinone] returned a melting point of 120 to 123 °C.

`CS(=O)(=O)c1ccc(-c2cnn(-c3ccc(F)c(F)c3)c(=O)c2OCCCCO)cc1` [Example 541, 2-(3,4-Difluorophenyl)-4-(4-hydroxy-1-butoxy)-5-[4-(methylsulfonyl)phenyl]-3(2H)-pyridazinone] returned a melting point of 110 to 113 °C.

`CC(C)(C)CCOc1c(-c2ccc(S(C)(=O)=O)cc2)cnn(CC(F)(F)F)c1=O` [Example 280, 2-(2,2,2-Trifluoroethyl)-4-(3,3-dimethylbutoxy)-5-[4-(methylsulfonyl)phenyl]-3(2H)-pyridazinone] registered a melting point of 83 to 85 °C.

Compound `COc1c(-c2ccc(S(C)(=O)=O)cc2)cnn(-c2cccc(Cl)c2)c1=O` [Example 331, 2-(3-Chlorophenyl)-4-methoxy-5-[4-(methylsulfonyl)phenyl]-3(2H)-pyridazinone] showed a melting point of 112 to 114 °C.

`CC(C)COc1c(-c2ccc(S(C)(=O)=O)cc2)cnn(-c2ccc(Cl)c(Cl)c2)c1=O` [Example 539, 2-(3,4-Dichlorophenyl)-4-(2-methyl-1-propoxy)-5-[4-(methylsulfonyl)phenyl]-3(2H)-pyridazinone] showed a melting point of 127 to 129 °C.

`CC(C)(O)CCOc1c(-c2ccc(S(C)(=O)=O)cc2)cnn(-c2cccc(C(F)(F)F)c2)c1=O` [Example 544, 2-[3-(Trifluoromethyl)phenyl]-4-(3-hydroxy-3-methyl-1-butoxy)-5-[4-(methylsulfonyl)phenyl]-3(2H)-pyridazinone] returned a melting point of 90 to 93 °C.

Turning to `CS(=O)(=O)c1ccc(-c2cnn(-c3ccc([N+](=O)[O-])cc3)c(=O)c2-c2ccc(F)cc2)cc1` [Example 157, 2-(4-Nitrophenyl)-4-(4-fluorophenyl)-5-[4-(methylsulfonyl)phenyl]-3(2H)-pyridazinone], the melting point lay within 110 to 116 °C.

Compound `COCCCNc1c(-c2ccc(S(C)(=O)=O)cc2)cnn(CC(F)(F)F)c1=O` [Example 295, 2-(2,2,2-Trifluoroethyl)-4-(3-methoxylpropylamino)-5-[4-(methylsulfonyl)phenyl]-3(2H)-pyridazinone] had a melting point of 110 to 113 °C.

Regarding `CC(C)(O)CCOc1c(-c2ccc(S(N)(=O)=O)cc2)cnn(-c2ccc(F)cc2)c1=O` [Example 470, 2-(4-Fluorophenyl)-4-(3-hydroxy-3-methyl-1-butoxy)-5-[4-(aminosulfonyl)phenyl]-3(2H)-pyridazinone], the melting point was 163 to 164 °C.

For `CC(C)Oc1c(-c2ccc(S(C)(=O)=O)cc2)cnn(-c2cccc(F)c2)c1=O` [Example 202, 2-(3-Fluorophenyl)-4-(2-propoxy)-5-[4-(methylsulfonyl)phenyl]-3(2H)-pyridazinone], the melting point lay within 110 to 112 °C.

In turn, `CS(=O)(=O)c1ccc(-c2cn[nH]c(=O)c2-c2ccc(F)cc2)cc1` [Example 11, 4-(4-Fluorophenyl)-5-[4-(methylsulfonyl)phenyl]-3(2H)-pyridazinone] showed a melting point of 255 to 256 °C.

For `C[Se](=O)(=O)c1ccc(-c2cnn(-c3ccc(F)cc3)c(=O)c2-c2ccc(F)cc2)cc1`, the melting point lay in the range of 110 to 150 °C.

In the case of `CS(=O)(=O)c1ccc(-c2cnn(-c3cccc(Cl)c3)c(=O)c2COC(=O)c2ccccc2)cc1` [Example 208, 2-(3-Chlorophenyl)-4-(benzoyloxymethyl)-5-[4-(methylsulfonyl)phenyl]-3(2H)-pyridazinone], the melting point fell in the range of 50 to 70 °C.

In turn, `CC(C)(C)SCc1c(-c2ccc(S(C)(=O)=O)cc2)cnn(-c2ccc(F)cc2)c1=O` [Example 197, 2-(4-Fluorophenyl)-4-(t-butylthiomethyl)-5-[4-(methylsulfonyl)phenyl]-3(2H)-pyridazinone] showed a melting point of 50 to 70 °C.

Compound `CC(C)(CO)COc1c(-c2ccc(S(C)(=O)=O)cc2)cnn(-c2ccc(F)c(F)c2)c1=O` [Example 510, 2-(3,4-Difluorophenyl)-4-(3-hydroxy-2,2-dimethyl-1-propoxy)-5-[4-(methylsulfonyl)phenyl]-3(2H)-pyridazinone] yielded a melting point of 161 to 162 °C.

In turn, `CS(=O)(=O)c1ccc(-c2cnn(-c3ccc(F)c(F)c3)c(=O)c2Oc2ccc(Br)cc2)cc1` [Example 282, 2-(3,4-Difluorophenyl)-4-(4-bromophenoxy)-5-[4-(methylsulfonyl)phenyl]-3(2H)-pyridazinone] yielded a melting point of 196 to 199 °C.

With `CS(=O)(=O)c1ccc(-c2cnn(CC(F)(F)F)c(=O)c2SCc2ccccc2)cc1` [Example 285, 2-(2,2,2-Trifluoroethyl)-4-phenylmethylthio-5-[4-(methylsulfonyl)phenyl]-3(2H)-pyridazinone], the melting point fell in the range of 108 to 111 °C.

Compound `CS(=O)(=O)c1ccc(-c2cnn(CC(=O)c3ccc(Cl)cc3)c(=O)c2-c2ccc(F)cc2)cc1` [Example 47, 2-(4-Chlorophenacyl)-4-(4-fluorophenyl)-5-[4-(methylsulfonyl)phenyl]-3(2H)-pyridazinone] came in with a melting point of 186 to 188 °C.

As for `CC(C)(O)CCOc1c(-c2ccc(S(C)(=O)=O)cc2)cnn(-c2ccc(Cl)c(Cl)c2)c1=O` [Example 532, 2-(3,4-Dichlorophenyl)-4-(3-hydroxy-3-methyl-1-butoxy)-5-[4-(methylsulfonyl)phenyl]-3(2H)-pyridazinone], the melting point is 118 to 120 °C.

`CS(=O)(=O)c1ccc(-c2cnn(CC(=O)c3ccc(OC(F)(F)F)cc3)c(=O)c2-c2ccc(F)cc2)cc1` [Example 55, 2-(4-Trifluoromethoxyphenacyl)-4-(4-fluorophenyl)-5-[4-(methylsulfonyl)phenyl]-3(2H)-pyridazinone] registered a melting point of 160 to 161 °C.

Compound `CS(=O)(=O)c1ccc(-c2cnn(CC(F)(F)F)c(=O)c2Nc2cc(F)cc(F)c2F)cc1` [Example 315, 2-(2,2,2-Trifluoroethyl)-4-(2,3,5-trifluoroanilino)-5-[4-(methylsulfonyl)phenyl]-3(2H)-pyridazinone] returned a melting point of 190 to 194 °C.

For the compound `COc1cc(Nc2c(-c3ccc(S(C)(=O)=O)cc3)cnn(CC(F)(F)F)c2=O)cc(C(F)(F)F)c1` [Example 310, 2-(2,2,2-Trifluoroethyl)-4-[3-methoxy-5-(trifluoromethyl)anilino]-5-[4-(methylsulfonyl)phenyl]-3(2H)-pyridazinone], the melting point lay within 206 to 208 °C.

For `CS(=O)(=O)c1ccc(-c2cnn(-c3ccc(F)c(F)c3)c(=O)c2Cc2ccccc2)cc1` [Example 233, 2-(3,4-Difluorophenyl)-4-benzyl-5-[4-(methylsulfonyl)phenyl]-3(2H)-pyridazinone], the melting point fell in the range of 166 to 168 °C.

`CC(C)Oc1c(-c2ccc(S(C)(=O)=O)cc2)cnn(-c2cccc(Cl)c2)c1=O` [Example 201, 2-(3-Chlorophenyl)-4-(2-propoxy)-5-[4-(methylsulfonyl)phenyl]-3(2H)-pyridazinone] had a melting point of 134 to 136 °C.

For the compound `COc1c(-c2ccc(S(C)(=O)=O)cc2)cnn(-c2ccc(F)c(F)c2)c1=O` [Example 453, 2-(3,4-Difluorophenyl)-4-methoxy-5-[4-(methylsulfonyl)phenyl]-3(2H)-pyridazinone], the melting point lay within 113 to 115 °C.

In turn, `CC(C)CCC(C)Oc1c(-c2ccc(S(C)(=O)=O)cc2)cnn(-c2ccc(F)cc2)c1=O` (centres unmarked) [Example 429, 2-(4-Fluorophenyl)-4-(5-methyl-2-hexyloxy)-5-[4-(methylsulfonyl)phenyl]-3(2H)-pyridazinone] displayed a melting point of 102 to 103 °C.

Turning to `CS(=O)(=O)c1ccc(-c2cnn(CC(F)(F)F)c(=O)c2OCc2ccccc2)cc1` [Example 270, 2-(2,2,2-Trifluoroethyl)-4-(phenylmethoxy)-5-[4-(methylsulfonyl)phenyl]-3(2H)-pyridazinone], the melting point is 121 to 123 °C.

In the case of `CC(C)COc1c(-c2ccc(S(C)(=O)=O)cc2)cnn(-c2cccc(C(F)(F)F)c2)c1=O` [Example 542, 2-[3-(Trifluoromethyl)phenyl]-4-(2-methyl-1-propoxy)-5-[4-(methylsulfonyl)phenyl]-3(2H)-pyridazinone], the melting point lay within 125 to 127 °C.

Compound `CC(C)(O)CCOc1c(-c2ccc(S(N)(=O)=O)cc2)cnn(-c2ccc(F)c(Cl)c2)c1=O` [Example 474, 2-(3-Chloro-4-fluorophenyl)-4-(3-hydroxy-3-methyl-1-butoxy)-5-[4-(aminosulfonyl)phenyl]-3(2H)-pyridazinone] registered a melting point of 59 to 62 °C.

With `CS(=O)(=O)c1ccc(-c2cnn(Cc3ccccc3)c(=O)c2Cl)cc1` [Example 78, 2-Benzyl-4-chloro-5-[4-(methylsulfonyl)phenyl]-3(2H)-pyridazinone], the melting point lay within 166 to 167 °C.

As for `CS(=O)(=O)c1ccc(-c2cnn(CC(F)(F)F)c(=O)c2NC2CCc3ccccc32)cc1` (centres unmarked) [Example 303, 2-(2,2,2-Trifluoroethyl)-4-(2,3-dihydro-1H-inden-1-ylamino)-5-[4-(methylsulfonyl)phenyl]-3(2H)-pyridazinone], the melting point was in the range of 155 to 158 °C.

Compound `CS(=O)(=O)c1ccc(-c2cnn(Cc3cccnc3)c(=O)c2-c2ccc(F)cc2)cc1` [Example 29, 2-(3-Pyridylmethyl)-4-(4-fluorophenyl)-5-[4-(methylsulfonyl)phenyl]-3(2H)-pyridazinone] came in with a melting point of 160 to 161 °C.

Consider `CS(=O)(=O)c1ccc(-c2cnn(CC(F)(F)F)c(=O)c2NCC2CC2)cc1` [Example 302, 2-(2,2,2-Trifluoroethyl)-4-(cyclopropylmethylamino)-5-[4-(methylsulfonyl)phenyl]-3(2H)-pyridazinone], for which the melting point lay in the range of 145 to 146 °C.
